Laboratory results published in PubChem BioAssay (NCI).
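Protocol summary: plate cells (96-well), add compound at 5 concentrations, incubate 48 h, interpolate endpoints linearly. Here, GI50 denotes the concentration required for 50% inhibition of growth. TGI: concentration producing complete growth inhibition.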

Key:
Test in all cases: NCI-60 cell line screen, 48 h
[1] = test system: MDA-MB-468 breast
[2] = test system: NCI/ADR-RES ovarian
[3] = test system: SF-295 CNS
[4] = test system: MALME-3M melanoma
[5] = test system: A498 renal
[6] = test system: MOLT-4 leukemia
[7] = test system: MDA-MB-231 breast
[8] = test system: SR leukemia
[9] = test system: CCRF-CEM leukemia
[10] = test system: SN12C renal
[11] = test system: SK-MEL-5 melanoma
[12] = test system: UO-31 renal
[13] = test system: UACC-257 melanoma
[14] = test system: NCI-H460 lung
[15] = test system: HOP-92 NSCLC
[16] = test system: HCT-15 colon
[17] = test system: SK-MEL-2 melanoma
[18] = test system: UACC-62 melanoma
[19] = test system: HL-60(TB) leukemia
[20] = test system: NCI-H226 lung
[21] = test system: OVCAR-3 ovarian
[22] = test system: SNB-75 CNS
[23] = test system: MDA-MB-435
[24] = test system: RXF 393 renal
[25] = test system: DU-145 prostate
[26] = test system: CAKI-1 renal
[27] = test system: IGROV1 ovarian
[28] = test system: SW-620 colon
[29] = test system: HS 578T breast

C/C=C/c1cc2c(cc1O)CC[C@@H]1[C@@H]2CC[C@]2(C)[C@@H](O)CC[C@@H]12
GI50 [1]: 2990 nM | TGI [1]: 17100 nM

COC(=O)[C@H](Cc1cn(C)cn1)NC(=O)[C@H](CC(=O)OCc1ccccc1)NC(=O)Nc1cc(C(F)(F)F)cc(C(F)(F)F)c1
GI50 [1]: 2100 nM | TGI [1]: 6550 nM

COc1cc2c(cc1OC)C(C(CCCCCC(CCC(C)C)C1NCCc3cc(OC)c(OC)cc31)CCC(C)C)NCC2 (stereo not drawn)
GI50 [1]: 588 nM | TGI [1]: 1250 nM

Oc1ccc2c(=S)cc(-c3ccc(Br)cc3)oc2c1O
GI50 [1]: 2080 nM | TGI [1]: 6500 nM

Cc1ccc(C[As+](c2ccccc2)(c2ccccc2)c2ccccc2)cc1
GI50 [1]: 185 nM | TGI [1]: 1080 nM

O=C1/C(=C\c2ccc(F)cc2)CN(C(=O)c2ccccc2F)C/C1=C\c1ccc(F)cc1
GI50 [1]: 1510 nM | TGI [1]: 3400 nM

O=C(Nc1ccncc1)C(=O)c1cn(S(=O)(=O)c2cccc(Cl)c2)c2ccccc12
GI50 [1]: 763 nM | TGI [1]: 45300 nM

C=C1c2nc3ccccc3n2C=C(c2cccc(Cl)c2)N1Cc1ccc(OC)cc1
GI50 [1]: 784 nM | TGI [1]: 17200 nM

CC[C@@H](C)/C=C(C)/C=C/C(=O)c1c(O)c(-c2ccc(OC(=O)[C@@]34CC[C@@](C)(C(=O)O3)C4(C)C)cc2)cn(O)c1=O
GI50 [1]: 1320 nM | TGI [1]: 10800 nM

COc1cccc2c1C(=O)c1c(O)c3c(c(O)c1C2=O)C[C@@](O)(/C(CO)=N/NC(=O)CCCCCN1C(=O)C=CC1=O)C[C@@H]3O[C@H]1C[C@H](N)[C@H](O)[C@H](C)O1
GI50 [1]: 438 nM | TGI [1]: 2750 nM

COc1ccc(Cn2cc(COc3cc(/C=C/C(=O)c4cc(OC)c(OC)c(OC)c4)ccc3OC)nn2)cc1
GI50 [1]: 2050 nM | TGI [1]: 7000 nM

Brc1ccccc2cc(-c3ccccc3)nc1-2
GI50 [1]: 4700 nM | TGI [1]: > 56600 nM

C=CCn1c2ccccc2c2c3c(c4c5ccccc5n(CC=C)c4c21)C(=O)N(O)C3=O
GI50 [1]: 3880 nM | TGI [1]: 41900 nM

O=C(O)CCC(c1ccccc1)(c1ccccc1)c1ccccc1
GI50 [1]: 57900 nM | TGI [1]: > 100000 nM

COc1cc(C(=O)/C=C/c2cc(-c3ccc4c(c3)OCO4)n[nH]2)cc(OC)c1OC
GI50 [1]: 1400 nM | TGI [1]: 3500 nM

C#C[C@@]1(O)[C@@H](CO)O[C@@H](n2cc(Br)c3c(Cl)ccnc32)[C@@H]1O
GI50 [1]: 836 nM | TGI [1]: > 31600 nM

NC(=O)c1c(NC(=O)c2cccs2)sc2c1CCC(=O)C2
GI50 [1]: 2580 nM | TGI [1]: 8770 nM

Cc1ccc(/C=N/NC(=O)c2ccccc2Oc2ccccc2)o1
GI50 [1]: 19600 nM | TGI [1]: 65700 nM

CN(C)c1ccc(/C=C(\C#N)c2cc3ccccc3[nH]2)cc1
GI50 [1]: 373 nM | TGI [1]: 4200 nM

COC(=O)[C@]12CC[C@@H](C)[C@H](C)[C@@H]1C1=CC[C@@H]3[C@@]4(C)C(C=O)=C[C@@](C)(CO)[C@@H]4[C@H](O)C[C@@]3(C)[C@]1(C)CC2
GI50 [1]: 4360 nM | TGI [1]: 18900 nM

Cc1ccc(C(C)C)cc1Oc1cccc(-c2c(-c3ccc(C(F)(F)F)cc3)ncn2C2CCNCC2)n1
GI50 [2]: 1600 nM | TGI [2]: 3190 nM | GI50 [3]: 1530 nM | TGI [3]: 2970 nM | GI50 [4]: 1430 nM | TGI [4]: 2770 nM | GI50 [5]: 1570 nM | TGI [5]: 3050 nM | GI50 [6]: 1690 nM | TGI [6]: 4440 nM | GI50 [7]: 1480 nM | TGI [7]: 2810 nM | GI50 [8]: 1610 nM | TGI [8]: 4130 nM | GI50 [9]: 2260 nM | TGI [9]: 27900 nM | GI50 [10]: 1350 nM | TGI [10]: 2660 nM | GI50 [11]: 1610 nM | TGI [11]: 2990 nM | GI50 [12]: 1330 nM | TGI [12]: 2630 nM | GI50 [13]: 1750 nM | TGI [13]: 3400 nM | GI50 [14]: 1630 nM | TGI [14]: 3080 nM | GI50 [15]: 1350 nM | TGI [15]: 2840 nM | GI50 [16]: 1360 nM | TGI [16]: 2690 nM | GI50 [17]: 1820 nM | TGI [17]: 3470 nM | GI50 [18]: 1440 nM | TGI [18]: 2760 nM | GI50 [19]: 1050 nM | TGI [19]: 3360 nM | GI50 [20]: 1480 nM | TGI [20]: 3010 nM | GI50 [21]: 1800 nM | TGI [21]: 3280 nM | GI50 [22]: 1300 nM | TGI [22]: 2680 nM | GI50 [23]: 1700 nM | TGI [23]: 3190 nM | GI50 [24]: 1340 nM | TGI [24]: 2720 nM | GI50 [25]: 1680 nM | TGI [25]: 3100 nM | GI50 [26]: 1420 nM | TGI [26]: 2850 nM | GI50 [1]: 1330 nM | TGI [1]: 2730 nM | GI50 [27]: 1340 nM | TGI [27]: 2670 nM | GI50 [28]: 1470 nM | TGI [28]: 2910 nM | GI50 [29]: 1680 nM | TGI [29]: 3670 nM
